For the experiment, the target named is HIV-1 protease (Human immunodeficiency virus type 1 group M subtype B, UniProt P04585). The experiment is described as follows: biochemical. The settings on record: for inhibition at 0.123 µM: read-out: HIV-1 Protease % Inhib, dose 0.123 uM; for inhibition at 0.37 µM: read-out: HIV-1 Protease % Inhib, dose 0.370 uM. The method, boiled down: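 Percent inhibition derived from fluorescent cleavage product separated by filtration after streptavidin-bead capture of intact biotin/FITC substrate. Reaction: enzyme (10 μl, 0.1 μM stock) with substrate (20 μl, 0.2 μM stock) and compound, 1 h at room temperature in dark, pH 5.5 acetate buffer with 1.0 M NaCl and 0.05% NP-40.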

The mark [1] stands for this setting: dose 1.000 uM, read-out: HIV-1 Protease % Inhib.
Where [2] appears, read: dose 10.000 uM, read-out: HIV-1 Protease % Inhib.
The mark [3] stands for this setting: dose 100.000 uM, read-out: HIV-1 Protease % Inhib.
The mark [4] stands for this setting: read-out: HIV-1 Protease % Inhib, dose 1.000 uM.
The mark [5] stands for this setting: read-out: HIV-1 Protease % Inhib, dose 10.000 uM.
Where [6] appears, read: read-out: HIV-1 Protease % Inhib, dose 100.000 uM.
[7] abbreviates: dose 1.100 uM, read-out: HIV-1 Protease % Inhib.
Setting [8] is: dose 3.300 uM, read-out: HIV-1 Protease % Inhib.
Setting [9] is: dose 30.000 uM, read-out: HIV-1 Protease % Inhib.
Setting [10] is: read-out: HIV-1 Protease % Inhib, dose 1.100 uM.
Where [11] appears, read: read-out: HIV-1 Protease % Inhib, dose 3.300 uM.
[12] abbreviates: read-out: HIV-1 Protease % Inhib, dose 30.000 uM.

Where two headings read alike, the source gives them in different places.

For the molecule `O=c1oc2c(c(O)c1C(c1ccccc1)C1CC1)CCCCCCCCCC2` (centres unmarked) [Example 114, 3-(Cyclopropylphenylmethyl)-5,6,7,8,9,10,11,12,13,14-decahydro-4-hydroxy-2H-cyclododeca[b]pyran-2-one], the inhibition at 1 µM under setting [1] is less than 10%. Moreover, the inhibition at 10 µM under setting [2] was less than 10%. Under setting [3], the inhibition at 100 µM worked out at 14.1%.

For the molecule `CCC(c1ccccc1)c1c(O)c2ccc(C)cc2oc1=O` (centres unmarked) [Example 90, Coumarin, 4-hydroxy-7-methyl-3-(1-phenylpropyl)-], the inhibition at 1 µM under setting [4] is less than 10%. Besides, under setting [5], the inhibition at 10 µM amounted to 29.7%. Besides, the inhibition at 100 µM under setting [6] was 89.2%.

Consider `COCCOCCOCCC1CCCCc2c1oc(=O)c(C(c1ccccc1)C1CC1)c2O` (centres unmarked) [Example 181, 3-(Cyclopropylphenylmethyl)-6,7,8,9-tetrahydro-4-hydroxy-9-[2-[2-(2-methoxyethoxy)ethoxy]ethyl]-cyclohepta[b]pyran-2(5H)-one], for which the inhibition at 1.1 µM under setting [7] was 10.4%. Further, the inhibition at 3.3 µM under setting [8] is 35.1%. In addition, the inhibition at 10 µM under setting [2] amounted to 66.6%. The inhibition at 30 µM under setting [9] is 79.3%.

As for `CCC(CCc1ccccc1)c1c(O)c2ccccc2oc1=O` (centres unmarked) [Example 155, 3-(1-Ethyl-3-phenyl-propyl)4-hydroxy-chromen-2-one], under setting [4], the inhibition at 1 µM turned out to be 15.4%. The inhibition at 10 µM under setting [5] is 74.9%. Moreover, the inhibition at 100 µM under setting [6] was 91.9%.

Turning to `N#Cc1ccc(S(=O)(=O)Nc2ccc(C(c3c(O)c4c(oc3=O)CCCCCC4)C3CC3)cc2)cc1` (centres unmarked) [Example 472, Benzenesulfonamide, 4-cyano-N-[4-[cyclopropyl (5,6,7,8,9,10-hexahydro-4-hydroxy-2-oxo-2H-cycloocta [b]pyran-3-yl)methyl]phenyl]-], the inhibition at 3.3 µM under setting [8] was 15.5%. Further, the inhibition at 10 µM under setting [2] worked out at 82.2%. In addition, the inhibition at 30 µM under setting [9] was 110%.

Consider `O=c1oc2c(c(O)c1C(c1cccc(NS(=O)(=O)c3cccc(Br)c3)c1)C1CC1)CCCCCC2` (centres unmarked) [Example 291, 3-Bromo-N-[3-[cyclopropyl(5,6,7,8,9,10-hexahydro-4-hydroxy-2-oxo-2H-cycloocta[b]pyran-3-yl)methyl]phenyl]-benzenesulfonamide], for which the inhibition at 0.123 µM came to 80.4% and the inhibition at 0.37 µM came to 108%. Further, the inhibition at 1.1 µM under setting [10] was determined as 109%. For the same molecule, under setting [11], the inhibition at 3.3 µM is 122%. Moreover, the inhibition at 10 µM under setting [5] was 118%. For the same molecule, the inhibition at 30 µM under setting [12] came out at 117%.

Consider `O=c1oc2ccccc2c(O)c1Cc1ccc2ccccc2c1` [Example 3, 4-Hydroxy-3-(2-naphthylmethyl)coumarin], for which the inhibition at 1 µM under setting [1] was less than 10%. For the same molecule, the inhibition at 10 µM under setting [2] is less than 10%. For the same molecule, the inhibition at 100 µM under setting [3] stood at 48.8%.

As for `O=c1oc2c(c(O)c1C(c1cccc(NS(=O)(=O)c3ccc(C(F)(F)F)cc3)c1)C1CC1)CCCCCC2` (centres unmarked) [Example 267, N-[3-[Cyclopropyl(5,6,7,8,9,10-hexahydro-4-hydroxy-2-oxo-2H-cycloocta[b]pyran-3-yl)methyl]phenyl]-4-(trifluoromethyl)-benzenesulfonamide], the inhibition at 0.123 µM worked out at 71.5% and the inhibition at 0.37 µM worked out at 83.9%. Also, the inhibition at 1.1 µM under setting [10] was 92%. Further, the inhibition at 3.3 µM under setting [11] amounted to 107%. Moreover, the inhibition at 10 µM under setting [5] was 107%. Moreover, under setting [12], the inhibition at 30 µM was 110%.

Regarding `O=c1oc2c(c(O)c1C(c1cccc(NS(=O)(=O)c3ccc4ccccc4c3)c1)C1CC1)CCCCCC2` (centres unmarked) [Example 266, N-[3-[Cyclopropyl(5,6,7,8,9,10-hexahydro-4-hydroxy-2-oxo-2H-cycloocta[b]pyran-3-yl)methyl]phenyl]-2-naphthalenesulfonamide], the inhibition at 0.123 µM came to 79.8% and the inhibition at 0.37 µM stood at 88.4%. For the same molecule, under setting [10], the inhibition at 1.1 µM was 104%. For the same molecule, under setting [11], the inhibition at 3.3 µM is 100%. Further, the inhibition at 10 µM under setting [5] was determined as 105%. For the same molecule, the inhibition at 30 µM under setting [12] worked out at 103%.

As for `CCC(c1ccccc1)c1c(O)c2cc(OC)ccc2oc1=O` (centres unmarked) [Example 89, Coumarin, 4-hydroxy-6-methoxy-3-(1-phenylpropyl)-], the inhibition at 1 µM under setting [4] is less than 10%. Moreover, under setting [5], the inhibition at 10 µM turned out to be 10.3%. Further, under setting [6], the inhibition at 100 µM worked out at 52%.

As to `CCC(c1cccc(C(=O)NCc2nc3ccccc3[nH]2)c1)c1c(O)c2ccccc2oc1=O` (centres unmarked) [Example 148, N-(1H-Benzoimidazol-2-ylmethyl)-3-(1-(4-hydroxy-2-oxo-2H-chromen-3-yl)-propyl)-benzamide], the inhibition at 1 µM under setting [4] was less than 10%. Besides, the inhibition at 10 µM under setting [5] worked out at 57.9%. Besides, under setting [6], the inhibition at 100 µM came to 93.7%.

Regarding `CCC(c1ccccc1OC)c1c(O)c2ccccc2oc1=O` (centres unmarked) [Example 70, 3-(1'-(2-Methoxyphenyl)propyl)-4-hydroxycoumarin], the inhibition at 1 µM under setting [4] is less than 10%. For the same molecule, the inhibition at 10 µM under setting [5] worked out at 10.2%. The inhibition at 100 µM under setting [6] amounted to 72.2%.

Turning to `C[C@H](NC(=O)OC(C)(C)C)C(=O)Nc1cccc(C(c2c(O)c3c(oc2=O)CCCCCC3)C2CC2)c1` (stereo partly drawn) [Example 198, Carbamic acid, [2-[[3-[cyclopropyl(5,6,7,8,9,10-hexahydro-4-hydroxy-2-oxo-2H-cycloocta[b]pyran-3-yl)methyl]phenyl]amino]-1-(S)-methyl-2-oxyethyl]-, 1,1-dimethylethyl ester], the inhibition at 0.123 µM came out at 67.1% and the inhibition at 0.37 µM came out at 91.9%. In addition, under setting [10], the inhibition at 1.1 µM worked out at 107%. In addition, the inhibition at 3.3 µM under setting [11] worked out at 111%. Also, the inhibition at 10 µM under setting [5] amounted to 115%. In addition, the inhibition at 30 µM under setting [12] is 116%.

Regarding `CC(C)(C)OC(=O)CC(c1ccccc1)c1c(O)c2ccccc2oc1=O` (stereo not drawn) [Example 66, 4-hydroxy-3-[α-tert-butyloxycarbonylmethyl]benzylcoumarin], under setting [4], the inhibition at 1 µM is less than 10%. Also, the inhibition at 10 µM under setting [5] is less than 10%. In addition, under setting [6], the inhibition at 100 µM was 52.6%.

Consider `CC(c1cccc(C(=O)NC2c3ccccc3CC2O)c1)c1c(O)c2ccccc2oc1=O` (centres unmarked) [Example 29, Benzamide, N-(2,3-dihydro-2-hydroxy-1H-inden-1-yl)-3-[1-(4-hydroxy-2-oxo-2H-1-benzopyran-3-yl)ethyl]-], for which the inhibition at 1 µM under setting [4] was less than 10%. The inhibition at 10 µM under setting [5] is 54.2%. Moreover, the inhibition at 100 µM under setting [6] amounted to 98.4%.

For the molecule `CC(C)S(=O)(=O)Nc1cccc(C(c2c(O)c3c(oc2=O)CCCCCC3)C2CC2)c1` (centres unmarked) [Example 328, N-[3-[Cyclopropyl(5,6,7,8,9,10-hexahydro-4-hydroxy-2-oxo-2H-cycloocta[b]pyran-3-yl)methyl]phenyl]-2-propanesulfonamide], the inhibition at 0.123 µM was found to be 11.9% and the inhibition at 0.37 µM was determined as 46%. Also, the inhibition at 1.1 µM under setting [10] worked out at 86.6%. Moreover, the inhibition at 3.3 µM under setting [11] came out at 106%. Under setting [5], the inhibition at 10 µM was 114%. Further, the inhibition at 30 µM under setting [12] is 111%.

As for `CCCCCCCCCCCCS(=O)(=O)Nc1cccc(C(c2c(O)c3c(oc2=O)CCCCCC3)C2CC2)c1` (centres unmarked) [Example 344, N-[3-[Cyclopropyl(5,6,7,8,9,10-hexahydro-4-hydroxy-2-oxo-2H-cycloocta[b]pyran-3-yl)methyl]phenyl]-1-dodecanesulfonamide], the inhibition at 1.1 µM under setting [7] was determined as 11.8%. In addition, under setting [8], the inhibition at 3.3 µM is 32.7%. Besides, the inhibition at 10 µM under setting [2] was 63.2%. The inhibition at 30 µM under setting [9] worked out at 81.8%.

Consider `CCC(c1ccccc1OC(C)=O)c1c(O)c2ccccc2oc1=O` (centres unmarked) [Example 73, 3-(1'-(2-Acetoxyphenyl)propyl)-4-hydroxycoumarin], for which the inhibition at 1 µM under setting [4] was less than 10%. Moreover, the inhibition at 10 µM under setting [5] was determined as 29.9%. For the same molecule, the inhibition at 100 µM under setting [6] is 96.7%.

`O=c1oc2c(c(O)c1C(C1CC1)C1CC1)CCCCCC2` [Example 118, 3-(Dicyclopropylmethyl)-5,6,7,8,9,10-hexahydro-4-hydroxy-2H-cycloocta[b]pyran-2-one]: where the note is “read-out: HIV-1 Protease % Inhib, dose 0.410 uM”, the inhibition at 0.41 µM amounted to 68.7%. Moreover, where the note is “read-out: HIV-1 Protease % Inhib, dose 1.230 uM”, the inhibition at 1.23 µM came out at 87.9%. In addition, the inhibition at 3.7 µM (read-out: HIV-1 Protease % Inhib, dose 3.700 uM) is 99%. Moreover, for the setting “read-out: HIV-1 Protease % Inhib, dose 11.000 uM”, the inhibition at 11 µM was found to be 110%. The inhibition at 33 µM (read-out: HIV-1 Protease % Inhib, dose 33.000 uM) stood at 103%. Also, the inhibition at 100 µM under setting [6] was 105%.

Take `CCC(c1cccc(NC(=O)COc2cccc3ccccc23)c1)c1c(O)c2ccccc2oc1=O` (centres unmarked) [Example 41, Coumarin, 4-hydroxy-3-[1-[3-[[(1-naphthoxymethyl)carbonyl]amino]phenyl]propyl]-]: under setting [4], the inhibition at 1 µM was less than 10%. Further, the inhibition at 10 µM under setting [5] turned out to be 32.6%. For the same molecule, the inhibition at 100 µM under setting [6] worked out at 80.6%.

Consider `CCC(c1cccc(NC(=O)CCc2ccc(O)cc2)c1)c1c(O)c2ccccc2oc1=O` (centres unmarked) [Example 62, Coumarin, 4-hydroxy-3-[1-[3-[[3-(4-hydroxyphenyl)-1-oxopropyl]amino]phenyl]propyl]-], for which, under setting [4], the inhibition at 1 µM is less than 10%. Under setting [5], the inhibition at 10 µM is 10.6%. Besides, the inhibition at 100 µM under setting [6] was found to be 78.3%.

For the origin of these results see patent US5686486A, “4-hydroxy-benzopyran-2-ones and 4-hydroxy-cycloalkyl[b]pyran-2-ones useful to treat retroviral infections” (priority 1995, dated 1997).
